Measured values from patent publication US20150174021A1, “COSMETIC COMPOSITION COMPRISING BENZYLSULFONYL-D-SER-HOMOPHE-(4-AMIDINO-BENZYLAMIDE) AND A POLYALCOHOL” (DSM IP ASSETS B.V., priority 2012, published 2015).
Where two headings read alike, the source gives them in different places.

What was measured:
[1] = biological target: human plasmin (Homo sapiens, UniProt P00747); test: Inhibition of human plasmin, chromogenic substrate Tos-Gly-Pro-Lys-pNA, Ki according to Dixon; format: biochemical
Chain of human plasmin (P00747 581-810 limits assumed): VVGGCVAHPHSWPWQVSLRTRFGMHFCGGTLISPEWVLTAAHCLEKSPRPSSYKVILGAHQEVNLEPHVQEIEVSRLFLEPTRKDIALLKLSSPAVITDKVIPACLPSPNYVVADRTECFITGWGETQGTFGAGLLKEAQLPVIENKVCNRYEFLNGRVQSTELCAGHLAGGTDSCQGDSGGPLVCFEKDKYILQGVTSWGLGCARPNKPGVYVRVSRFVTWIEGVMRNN
Chain of human plasmin (P00747 97-580 partner limits assumed): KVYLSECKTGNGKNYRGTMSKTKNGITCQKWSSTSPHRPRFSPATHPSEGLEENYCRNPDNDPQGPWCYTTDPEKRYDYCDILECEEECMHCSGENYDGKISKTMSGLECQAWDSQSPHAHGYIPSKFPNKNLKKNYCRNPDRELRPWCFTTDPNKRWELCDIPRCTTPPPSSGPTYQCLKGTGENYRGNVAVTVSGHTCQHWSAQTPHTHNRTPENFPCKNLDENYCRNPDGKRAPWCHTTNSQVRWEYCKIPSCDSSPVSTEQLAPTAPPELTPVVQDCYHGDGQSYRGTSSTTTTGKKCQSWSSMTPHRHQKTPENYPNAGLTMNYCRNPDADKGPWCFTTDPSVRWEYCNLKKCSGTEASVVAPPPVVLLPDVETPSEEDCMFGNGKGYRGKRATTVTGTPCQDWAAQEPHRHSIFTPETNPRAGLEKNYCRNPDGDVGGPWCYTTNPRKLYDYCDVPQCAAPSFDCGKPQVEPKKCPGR
Method: The measurements were carried out on a microplate reader at 25′C.
(§1) The measurements were carried out on a microplate reader at 25° C. […] The Ki-values for the respective inhibitors were calculated according to Dixon34 using a linear regression proaram. Bz-βAla-Gly-Arg-pNA was used as the substrate for human uPA and Tos-Gly-Pro-Lys-pNA for human plasmin.

[2] = biological target: human uPA (Homo sapiens, UniProt P00749); test: Inhibition of human uPA (urokinase), chromogenic substrate Bz-βAla-Gly-Arg-pNA, Ki according to Dixon; format: biochemical
Method: The measurements were carried out on a microplate reader at 25° C.
as §1

[3] = comparative inhibitor compositions, 0.1% inhibitor and 99.9% of glycerine 86%, 25° C., pH 8.0, Dixon, read-out: Ki for plasmin inhibition

Structure (SMILES)	Ki [1, 3]	Ki ([2]; comparative inhibitor compositions, 0.1% inhibitor and 99.9% of glycerine 86%, 25° C., pH 8.0, Dixon, read-out: Ki for uPA inhibition)	Ki [2]	Ki [1]	Ki for plasmin inhibition compared to 3 other 4-amidino benzylamines ([1]; compared to the Gly, Ala and Lys analogues of WO2009/026949)
CC(NC(=O)C(CO)NS(=O)(=O)Cc1ccccc1)C(=O)NCc1ccc(C(=N)N)cc1 [Benzylsulfonyl-D-Ser-Ala-(4-amidino-benzylamide)]	540 nM	–	–	–	–
N=C(N)c1ccc(CNC(=O)CNC(=O)[C@@H](CO)NS(=O)(=O)Cc2ccccc2)cc1 [Benzylsulfonyl-D-Ser-Gly-(4-amidino-benzylamide)]	11000 nM	–	–	–	–
N=C(N)c1ccc(CNC(=O)C(CCCCN)NC(=O)C(CO)NS(=O)(=O)Cc2ccccc2)cc1 [Benzylsulfonyl-D-Ser-Lys-(4-amidino-benzylamide), reference compound]	360 nM	24 nM	–	–	–
N=C(N)c1ccc(CNC(=O)C(CCc2ccccc2)NC(=O)C(CO)NS(=O)(=O)Cc2ccccc2)cc1 [benzylsulfonyl-D-Ser-homoPhe-(4-amidino-benzylamide)]	–	–	28 nM	36 nM	an order of magnitude better
